Activity calls are given as the source filed them. The rule behind the calls is not given here.
molecular target: Procathepsin L (Homo sapiens, UniProt P07711); test: Inhibition of human cathepsin L

For CC(C)(C)OC(=O)N[C@@H](Cc1c[nH]c2ccccc12)C(=O)NNC(=O)NCC(=O)N1CCCc2ccccc21, which IC50 is on record?
Its IC50 is 3000 nM.

With CC(C)(C)OC(=O)N[C@@H](Cc1c[nH]c2ccccc12)C(=O)NNC(=O)SC1CCN(c2ccccc2)C1=O (some centres undefined) as the compound, how does the IC50 read?
The IC50 was 110 nM.

With CCc1ccccc1NC(=O)CSC(=O)NNC(=O)CCc1c[nH]c2ccccc12 as the compound, how does the IC50 read?
The IC50 was 21800 nM.

How did the IC50 turn out when CCc1ccccc1NC(=O)CSC(=O)NNC(=O)[C@H](Cc1ccccc1)NC(=O)OC(C)(C)C was run?
The IC50 was 115 nM.

For CC(C)(C)OC(=O)N[C@@H](Cc1c[nH]c2ccccc12)C(=O)NNC(=O)SCC(=O)N1CCCc2ccccc21, which IC50 is on record?
The IC50 was 41 nM.

Which IC50 does the source give for CC(C)(C)OC(=O)N[C@@H](Cc1c[nH]c2ccccc12)C(=O)NNC(=O)OCC(=O)N1CCCc2ccccc21 here?
Its IC50 is 7 nM.

With COC(=O)CSC(=O)NNC(=O)[C@H](Cc1c[nH]c2ccccc12)NC(=O)OC(C)(C)C as the compound, how does the IC50 read?
The IC50 was 201 nM.

With CC(C)(C)OC(=O)N[C@@H](Cc1c[nH]c2ccccc12)C(=O)NNC(=O)CCC(=O)N1CCCc2ccccc21 as the compound, how does the Activity read?
Its Activity is “inactive”.

CCc1ccccc1NC(=O)CSC(=O)NNC(=O)CNC(=O)OC(C)(C)C was tested. Which Activity did it give?
The Activity was “inactive”.
